Test results reported in ChEMBL document CHEMBL1123233, “Preparation and analgesic activity of (-)-11 alpha-substituted 1,2,3,4,5,6-hexahydro-6 alpha,7-(methyleneoxy)-2,6-methano-3-benzazocines” (J Med Chem, 1986).
Calls of active or inactive are those of the source. No cut-off for these calls is given here.

Experiments:
Mus musculus [1] = species on record: Mus musculus; assay: Compound was tested for its analgesic activity in mouse hotplate assay; type: functional
Mus musculus [2] = assay: Compound was tested in mouse tail-flick analgesic antagonist assay vs morphine at 30 mg/kg; Inactive; type: functional, organism-based; design: dose 30 mg/kg
Mus musculus [3] = species on record: Mus musculus; assay: Compound was tested in mouse tail-flick antinociceptive assay.; type: functional
Mus musculus [4] = species on record: Mus musculus; assay: Compound was tested in phenylquinone antinociceptive assay.; type: functional
Mus musculus [5] = assay: Compound was tested for its analgesic activity in mouse hotplate assay at 20 mg/kg; Inactive; type: functional, organism-based; design: dose 20 mg/kg
Mus musculus [6] = species on record: Mus musculus; assay: Compound was tested in mouse tail-flick antinociceptive assay; type: functional
Mus musculus [7] = species on record: Mus musculus; assay: Compound was tested in phenylquinone antinociceptive assay; type: functional
Mus musculus [8] = species on record: Mus musculus; assay: Compound was evaluated for analgesic response in the mouse vas deferens assay at 10E-5 M; Inactive; type: functional, organism-based
Mus musculus [9] = species on record: Mus musculus; assay: Compound was evaluated for antagonism in the mouse vas deferens assay at 10E-6 M; Inactive; type: functional, organism-based
Mus musculus [10] = assay: Compound was tested in mouse tail-flick analgesic antagonist assay vs morphine at 30 mg/kg; type: functional
Mus musculus [11] = species on record: Mus musculus; assay: Compound was evaluated for analgesic response in the mouse vas deferens assay in the presence of naltrexone. (max response […]); type: functional, organism-based
Mus musculus [12] = species on record: Mus musculus; assay: The compound was evaluated for analgesic response in the mouse vas deferens assay (max response 80.6+/-4.0%); type: functional, organism-based
Mus musculus [13] = species on record: Mus musculus; assay: Compound was evaluated for antagonism in the mouse vas deferens assay in the presence of morphine at 10E-6 M; Inactive; type: functional, organism-based
Mus musculus [14] = assay: Compound was tested in mouse tail-flick antinociceptive assay at 10 mg/kg; Inactive; type: functional, organism-based; design: dose 10 mg/kg
Mus musculus [15] = species on record: Mus musculus; assay: Compound was tested in mouse tail-flick analgesic antagonist assay vs morphine; type: functional
Mus musculus [16] = assay: Compound was tested in mouse tail-flick antinociceptive assay at 30 mg/kg; Inactive; type: functional, organism-based; design: dose 30 mg/kg
Mus musculus [17] = species on record: Mus musculus; assay: Compound was evaluated for analgesic response in the mouse vas deferens assay (max response 77.1+/-8.0%); type: functional, organism-based
Mus musculus [18] = species on record: Mus musculus; assay: Compound was evaluated for analgesic response in the mouse vas deferens assay in the presence of naltrexone. (max response 43.4+/-8.1%); type: functional, organism-based
Mus musculus [19] = assay: Compound was tested for its analgesic activity in mouse hotplate assay at 50 mg/kg; Inactive; type: functional, organism-based; design: dose 50 mg/kg

Q: How did the ED50 (Mus musculus [1]) turn out when `COc1ccc2c3c1O[C@H]1[C@@H](O)C=C[C@H]4[C@@H](C2)N(C)CC[C@@]341.COc1ccc2c3c1O[C@H]1[C@@H](O)C=C[C@H]4[C@@H](C2)N(C)CC[C@@]341.O.O=P(O)(O)O.O=P(O)(O)O` [CODEINE PHOSPHATE] was run?
A: The ED50 was 9.3 mg/kg.

Q: And the AD50 (Mus musculus [2])?
A: The AD50 was “inactive”.

Q: What about the ED50 (Mus musculus [3]) of the same compound?
A: Its ED50 is 14.5 mg/kg.

Q: And the ED50 (Mus musculus [4])?
A: Its ED50 is 1.1 mg/kg.

Q: How did the ED50 (Mus musculus [5]) turn out when `CCC[C@H]1C2Cc3cccc4c3[C@]1(CCN2C)CO4` was run?
A: Its ED50 is “inactive”.

Q: And the AD50 (Mus musculus [2])?
A: Its AD50 is “inactive”.

Q: What about the ED50 (Mus musculus [6]) of the same compound?
A: The ED50 was 20.7 mg/kg.

Q: What about the ED50 (Mus musculus [7]) of the same compound?
A: The ED50 was 2.9 mg/kg.

Q: For `CN1CC[C@]23c4c5ccc(O)c4O[C@H]2[C@@H](O)C=C[C@H]3[C@H]1C5.CN1CC[C@]23c4c5ccc(O)c4O[C@H]2[C@@H](O)C=C[C@H]3[C@H]1C5.O=S(=O)(O)O`, which ED50 (Mus musculus [1]) is on record?
A: Its ED50 is 1.2 mg/kg.

Q: How did the ED50 (Mus musculus [5]) turn out when `CCC[C@H]1C2Cc3ccc(OC)c4c3[C@]1(CCN2C)CO4` was run?
A: Its ED50 is “inactive”.

Q: What about the EC50 (Mus musculus [8]) of the same compound?
A: The EC50 was “Not Active”.

Q: And the EC50 (Mus musculus [9])?
A: The EC50 was “Not Active”.

Q: And the AD50 (Mus musculus [2])?
A: The AD50 was “inactive”.

Q: And the ED50 (Mus musculus [6])?
A: Its ED50 is 8.1 mg/kg.

Q: What about the ED50 (Mus musculus [7]) of the same compound?
A: Its ED50 is 0.8 mg/kg.

Q: For `C=CCN1CC[C@]23c4c5ccc(O)c4O[C@H]2C(=O)CC[C@@]3(O)[C@H]1C5.Cl` [NALOXONE HYDROCHLORIDE], which AD50 (Mus musculus [10]) is on record?
A: Its AD50 is 0.035 mg/kg.

Q: With `CCC[C@H]1C2Cc3ccc(OC(C)=O)c4c3[C@]1(CCN2C)CO4` as the compound, how does the EC50 (Mus musculus [11]) read?
A: The EC50 was 422 nM.

Q: What about the EC50 (Mus musculus [12]) of the same compound?
A: The EC50 was 85.2 nM.

Q: What about the AD50 (Mus musculus [2]) of the same compound?
A: Its AD50 is “inactive”.

Q: And the ED50 (Mus musculus [3])?
A: Its ED50 is 0.7 mg/kg.

Q: What about the ED50 (Mus musculus [4]) of the same compound?
A: The ED50 was 0.2 mg/kg.

Q: And the ED50 (Mus musculus [13])?
A: Its ED50 is “inactive”.

Q: Which results are given for `COc1ccc2c3c1OC[C@@]31CCN(C)C(C2)[C@@H]1CCCO`?
A: ED50 (Mus musculus [5]): inactive; AD50 (Mus musculus [2]): inactive; ED50 (Mus musculus [14]): inactive

Q: Which results are given for `C=CCN1CC[C@]23COc4c(O)ccc(c42)CC1[C@@H]3CCC`?
A: ED50 (Mus musculus [5]): inactive; AD50 (Mus musculus [15]): 0.4 mg/kg; ED50 (Mus musculus [16]): inactive

Q: With `CCC[C@H]1C2Cc3ccc(O)c4c3[C@]1(CCN2CCc1ccccc1)CO4` as the compound, how does the ED50 (Mus musculus [1]) read?
A: The ED50 was 1.7 mg/kg.

Q: What about the AD50 (Mus musculus [2]) of the same compound?
A: Its AD50 is “inactive”.

Q: What about the ED50 (Mus musculus [6]) of the same compound?
A: Its ED50 is 1.4 mg/kg.

Q: What about the ED50 (Mus musculus [7]) of the same compound?
A: The ED50 was 0.2 mg/kg.

Q: With `CCC[C@H]1C2Cc3ccc(O)c4c3[C@]1(CCN2C)CO4` as the compound, how does the ED50 (Mus musculus [1]) read?
A: Its ED50 is 1.8 mg/kg.

Q: What about the EC50 (Mus musculus [17]) of the same compound?
A: Its EC50 is 350 nM.

Q: And the EC50 (Mus musculus [18])?
A: Its EC50 is 3320 nM.

Q: What about the AD50 (Mus musculus [2]) of the same compound?
A: The AD50 was “inactive”.

Q: And the ED50 (Mus musculus [6])?
A: Its ED50 is 0.4 mg/kg.

Q: And the ED50 (Mus musculus [7])?
A: The ED50 was 0.1 mg/kg.

Q: What about the ED50 (Mus musculus [13]) of the same compound?
A: Its ED50 is “inactive”.

Q: What does the source list for `CCOC(=O)CC[C@H]1C2Cc3ccc(OC)c4c3[C@]1(CCN2C)CO4`?
A: ED50 (Mus musculus [19]): inactive; AD50 (Mus musculus [2]): inactive; ED50 (Mus musculus [16]): inactive
